This note sets out measurements from patent US20240316171A1, “COMPOSITIONS AND METHODS FOR TARGETED IMMUNOTHERAPY” (Dana-Farber Cancer Institute, Inc., priority 2018, published 2024).

The structures appear in SMILES notation. Read-outs that look alike come from different tables or passages of the source. Bounds are passed on as bounds.

Series [1] in a line: Uncaging of compound 1 with hydrogen peroxide (fluorescence, HPLC). The settings on record: relatively high H2O2 concentrations (100 mM), HPLC analysis of products. The procedure: Hydrogen peroxide is expected to uncage compound 1 to produce compound 2. […] 20 μM compound 1 samples were prepared by 1:100 dilution of stock into 50 mM HEPES pH 7 buffer and the reaction started by […] to give final concentrations of 0.3, 0.03 or 0.003 percent. The concentration of the 30% stock H2O2 was confirmed by measuring the absorbance at 240 nm using an extinction coefficient of 43.6 M^−1 cm^−1.
A time-course of the kinetic response of compound 1 to H2O2 at 100 mM H2O2 is illustrated in FIG. 10. Multiple (3) peaks, including compound 1, were observed by HPLC. […] The possible side products are shown below.

Series [2] is described as follows: Uncaging in samples not treated with H2O2. Format: physicochemical. An excerpt: Fluorescence-detected HPLC confirmed that H2O2 reaction with compound 3 produced the desired product (4). […] Addition of 0.5M EDTA, pH 8.0 (Ultrapure Grade, Boston BioProducts) to the samples remedied the undesired uncaging of the compounds.
Series [3] is described as follows: Stock solutions/solubility. The format is physicochemical. As to conditions: thermodynamic from solid. How it is done:
Compound 1 was not soluble in buffer solution 50 mM 4-(2-hydroxyethyl)-1-piperazineethanesulfonic acid (HEPES) pH 7 at 2 mg/ml at room temperature overnight. In contrast, DMSO readily dissolved compound 1 at 2 mg/ml forming a clear solution. Compound 2 dissolved immediately at 1.5 mg/ml in buffer solution 50 mM HEPES pH 7 forming a yellow solution.

Where [4] appears, read: 50 mM HEPES buffer, aqueous buffer, 50 mM HEPES pH 7, compound 1 at room temperature overnight, read-out: solubility in buffer solution.

Regarding `CC1(C)[C@@H]2CC3OB(c4ccc5c(c4)Oc4cc(B6OC7C[C@@H]8C[C@@H](C8(C)C)[C@]7(C)O6)ccc4C54OC(=O)c5cc(NC(=O)CCOCCOCCNC(=O)CCN6C(=O)C=CC6=O)ccc54)O[C@@]3(C)[C@H]1C2` (stereo partly drawn) [Compound 1, 3-(2,5-dioxo-2,5-dihydro-1H-pyrrol-1-yl)-N-(2-(2-(3-oxo-3-((3-oxo-3′,6′-bis((3aS,4S,6S)-3a,5,5-trimethylhexahydro-4,6-methanobenzo[d][1,3,2]dioxaborol-2-yl)-3H-spiro[isobenzofuran-1,9′-xanthen]-5-yl)amino)propoxy)ethoxy)ethyl)propanamide], the “stability of maleimide moiety in the presence of H2O2” value in series [1] was “maleimide moiety is unstable”. Further, the “uncaging without H2O2” value in series [2] is reported as “Slow uncaging”. For the same molecule, the solubility in series [3] (setting [4]) was less than 2000 µg/mL; in series [3] (organic solvent or mixture, DMSO, clear solution, read-out: solubility in DMSO), not below 2000 µg/mL.
Consider `CC1(C)[C@@H]2C[C@H]1C1OB(c3ccc4c(c3)Oc3cc(B5OC6C[C@@H]7C[C@@H](C7(C)C)[C@]6(C)O5)ccc3C43OC(=O)c4cc(NC(=O)CCOCCOCCNC(=O)CCN5C(=O)CC(SC[C@H](N)C(=O)O)C5=O)ccc43)O[C@@]1(C)C2` (stereo partly drawn) [Compound 3, S-(2,5-dioxo-1-(3-oxo-3-((2-(2-(3-oxo-3-((3-oxo-3′-((3aS,4S,6S)-3a,5,5-trimethylhexahydro-4,6-methanobenzo[d][1,3,2]dioxaborol-2-yl)-6′-((4R,6R,7aS)-5,5,7a-trimethylhexahydro-4,6-methanobenzo[d][1,3,2]dioxaborol-2-yl)-3H-spiro[isobenzofuran-1,9′-xanthen]-5-yl)amino)propoxy)ethoxy)ethyl)amino)propyl)pyrrolidin-3-yl)cysteine], for which the “uncaging without H2O2” value in series [2] is reported as “Slow uncaging”.
Consider `O=C(CCN1C(=O)C=CC1=O)NCCOCCOCCC(=O)Nc1ccc2c(c1)C(=O)OC21c2ccc(O)cc2Oc2cc(O)ccc21` [Compound 2, N-(3′,6′-dihydroxy-3-oxo-3H-spiro[isobenzofuran-1,9′-xanthen]-5-yl)-3-(2-(2-(3-(2,5-dioxo-2,5-dihydro-1H-pyrrol-1-yl)propanamido)ethoxy)ethoxy)propanamide], for which, in series [3] (setting [4]), the solubility is not below 1500 µg/mL.

A word on the solubility: it is how much of the substance goes into solution per volume.
